Data taken from patent US8389794B2, “Transgenic pig as a model of Alzheimer's disease” (Aarhus Universitet, priority 2007, dated 2013).
Where a SMILES comes first, the peptide text is derived from it. [ ]: non-standard residue; d: D form. Nle = CCCC[C@H](N)C(=O)O

Assays:
APP695 = experiment: Western blot (antibody 6E10) of fibroblasts grown with protease inhibitors; type: cell-based, Göttingen minipig
Protocol: A Western blot using a commercial anti-APP antibody (6E10), […], was performed according to the manufacturer's recommendations. The Western blot was performed on extracts from fibroblast cells of a transgenic pig (lanes 1 and 2) and on extracts from fibroblast cells of a wt pig (lanes 3 and 4), see FIG. 10. In lane 1 the fibroblasts have been treated with the protease inhibitor ALLN, whereas the fibroblasts of lane 2 have not received treatment. […] In contrast, the lower molecular weight products are not present in similar amounts as in lane 2. Lanes 3 and 4 contain extracts of fibroblasts from wt pigs and no effect of ALLN treatment is evident in comparison to the extracts of transgenic pigs.
a) Non-transgenic donor fibroblasts (74114 cells) and fibroblasts from transgenic minipiglet No. 47 were grown to 80% confluence in a 75 cm2 flask. The cells from each flask were resuspended in 24 ml medium and transferred to a 6-well plate (TPP, Schwitzerland) with 2.5 ml of the cell suspension in each well. Medium was changed the following day with 2 ml fresh medium containing the chemical at the indicated concentration were added to the wells of both plates: well No. 1, 5 μM Lactacystin; well No. 2, 20 μM Leupeptin; well No. 3, 20 μl DMSO; well No. 4, 20 μM ALLN; well No. 5, 2.5 mM NH4Cl. After 6 hrs incubation the cells from each well were harvested and transferred to an 1.5 ml Eppendorf tube. 30 μl ddH20, 2 μl reducing agent and 8 μl loading buffer (Fermentas) were added, the tubes were placed in boiling water for 5 min. and spun at full speed for 1 min. in an Eppendorf centrifuge. 15 μl of each sample were loaded on a 4-15% polyacrylamid gel (BioRad), run at 45 mAmp for 90 min. Transfer to PVDF membrane (GE Healthcare) was done at 75 volt for 30 min., and the membrane was stained with anti-human APP monoclonal antibody 6E10 (SIGNET) at dilution 1:1000, and as secondary antibody polyclonal goat anti-mouse immunoglobulines/HRP (Dako Cytomation) at dilution 1:2000. b) Extraction of protein from brain tissue was done with 100-200 mg flash frozen cortical tissue homogenized in a tissue-grinder with 3 ml lysis buffer (Tris-HCl 50 mM, EDTA 10 mM, SDS 1%, Triton X-100 0.5%, ⅓ Protease Inhibitor Cocktail Tablet (Roche), pH 8.0). The solution was transferred to an Eppendorf tube (1 ml), centrifuged at 12,000 rpm for 2 min at 4° C. and supernatant transferred to a new tube. After vortexing the tube was frozen in dry ice for 3 min, thawed at 37° C. for 3 min, and this freeze/thaw step was repeated 3 times. Finally, the solution was centrifuged at 14,000 rpm (4° C.) for 10 min, the pellet discarded and the protein concentration of the supernatant determined. 8 μg protein extract was loaded in each lane of the polyacrylamid gel. Western blotting was done as described above. […]

β-secretase = molecular target: T1, β-secretase (Mus musculus, UniProt P56818); settings: oral administration, APP transgenic mice; cited from earlier work
T1 construct: host or cells: brain of APP transgenic mice (in vivo, oral dosing)

PDAPP transgenic mouse = settings: subcutaneous immunization, 100 ug in complete Freund adjuvant; cited from earlier work

T1 sequence (P56818 46-501): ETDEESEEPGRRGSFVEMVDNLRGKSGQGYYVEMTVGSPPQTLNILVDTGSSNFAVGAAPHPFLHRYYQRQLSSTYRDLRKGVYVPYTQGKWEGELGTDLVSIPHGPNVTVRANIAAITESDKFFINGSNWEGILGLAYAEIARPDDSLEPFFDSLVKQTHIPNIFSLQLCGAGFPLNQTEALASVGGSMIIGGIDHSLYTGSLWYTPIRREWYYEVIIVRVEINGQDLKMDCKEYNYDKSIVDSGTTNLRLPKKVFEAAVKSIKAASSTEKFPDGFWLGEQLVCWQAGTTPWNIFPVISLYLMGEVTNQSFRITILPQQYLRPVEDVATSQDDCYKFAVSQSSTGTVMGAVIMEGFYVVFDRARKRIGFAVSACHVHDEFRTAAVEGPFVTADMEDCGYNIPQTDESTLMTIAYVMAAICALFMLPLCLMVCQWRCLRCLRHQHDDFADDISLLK

CCCC[C@@H](C=O)NC(=O)[C@H](CC(C)C)NC(=O)[C@H](CC(C)C)NC(C)=O [ALLN] (Ac-Leu-Leu-[Nle]-aldehyde)
difference in intensity of the APP695 bands, transgenic vs non-transgenic fibroblasts (APP695; 20 μM ALLN in medium, fibroblasts of transgenic piglet No. 47 vs donor cells 74114): becomes more pronounced | bands of lower molecular weight than mutated APP (APP695; ALLN treated fibroblasts of transgenic pig vs untreated): increased in intensity

CCNc1cc(C(=O)N[C@@H](Cc2ccccc2)[C@H](O)CNCc2cccc(C(F)(F)F)c2)c(F)c(N2CCCCS2(=O)=O)c1 [GSK188909]
brain Abeta (β-secretase): significant lowering

Cl.N [ammonium chloride]
difference in intensity of the APP695 bands, transgenic vs non-transgenic fibroblasts (APP695; ammonium chloride in medium (2.5 mM NH4Cl per method), data not shown): no such effect

CC(=O)N[C@@H](CC(C)C)C(=O)N[C@@H](CC(C)C)C(=O)N[C@H](C=O)CCCNC(=N)N [leupeptin]
difference in intensity of the APP695 bands, transgenic vs non-transgenic fibroblasts (APP695; leupeptin in medium (20 μM per method), data not shown): no such effect

Abeta 1-42 antigen: Abeta 1-42 antigen in complete Freund adjuvant for active immunization
accumulation of plaques in the brain (PDAPP transgenic mouse): reduces the accumulation of plaques
